Measurements reported in BindingDB's records for doi:10.1021/jm9800144 (Smithkline Beecham, 1998).

Biological target: V-ATPase (Gallus gallus)
Assay: Compound was tested for inhibition of V-ATPase from Chicken osteoclasts (cOc)

IC50: 1900 nM
Structure (SMILES): COC(=O)/C(=C\C=C\c1cc2cc(Cl)c(Cl)cc2[nH]1)OC [(2E,4E)-5-(5,6-Dichloro-1H-indol-2-yl)-2-methoxy-penta-2,4-dienoic acid methyl ester]
